From patent publication US6465663B2, “O- or S-substituted tetrahydronaphthalene derivatives having retinoid and/or retinoid antagonist-like biological activity” (Allergan, Inc., priority 1996, dated 2002)

Legend:
RARβ = target: T1, RARβ (Homo sapiens, UniProt P10826); assay: Ligand binding assay
T1 sequence (P10826 1-455): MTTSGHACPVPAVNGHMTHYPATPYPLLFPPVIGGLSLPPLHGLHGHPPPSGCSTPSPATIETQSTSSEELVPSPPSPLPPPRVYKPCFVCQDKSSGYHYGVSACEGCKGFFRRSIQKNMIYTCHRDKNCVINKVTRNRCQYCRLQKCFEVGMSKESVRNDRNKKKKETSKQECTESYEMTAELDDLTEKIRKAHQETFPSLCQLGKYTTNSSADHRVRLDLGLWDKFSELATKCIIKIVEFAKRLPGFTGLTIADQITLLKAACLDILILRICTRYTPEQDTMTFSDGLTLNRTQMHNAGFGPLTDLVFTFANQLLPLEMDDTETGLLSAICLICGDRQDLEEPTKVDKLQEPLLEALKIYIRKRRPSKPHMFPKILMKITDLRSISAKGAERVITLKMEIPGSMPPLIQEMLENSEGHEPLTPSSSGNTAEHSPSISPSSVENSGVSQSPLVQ
Excerpt: (§1) Other assays described below, measure the ability of the compounds of the present invention to bind to, and/or activate various retinoid receptor subtypes. When in these assays a compound binds to a given receptor subtype and activates the transcription of a reporter gene through that subtype, then the compound is considered an agonist of that receptor subtype. […] In the below described assays the ability of the compounds to bind to RARα, RARβ, RARγ, RXRα, RXRβ and RXRΓ receptors, and the ability or inability of the compounds to activate transcription of a reporter gene through these receptor subtypes can be tested.
(§2) A holoreceptor transactivation assay and a ligand binding assay which measure the antagonist/agonist like activity of the compounds of the invention, or their ability to bind to the several retinoid receptor subtypes, respectively, are described in published PCT Application No. WO WO93/11755 (particularly on pages 30-33 and 37-41) published on Jun. 24, 1993, the specification of which is also incorporated herein by reference. A description of the holoreceptor transactivation assay is also provided below.
(§3) CV1 cells (5,000 cells/well) were transfected with an RAR reporter plasmid MTV-TREp-LUC (50 ng) along with one of the RAR expression vectors (10 ng) in an automated 96-well format by the calcium phosphate procedure of Heyman et al. Cell 68, 397-406, (1992). For RXRα and RXRγ transactivation assays, an RXR-responsive reporter plasmid CRBPII-tk-LUC (50 ng) along with the appropriate RXR expression vectors (10 ng) was used substantially as described by Heyman et al. above, and Allegretto et al. J. Biol. Chem. 268, 26625-26633. For RXRβ transactivation assays, an RXR-responsive reporter plasmid CPRE-tk-LUC ([…]) along with RXRβ expression vector ([…]) was used as described in above. These reporters contain DRI elements from human CRBPII and certain DRI elements from promoter, respectively. (see Mangelsdorf et al. The Retinoids: Biology, Chemistry and Medicine, pp 319-349, Raven Press Ltd., New York and Heyman et al., cited above) (1, 8). A β-galactosidase (50 ng) expression vector was used as an internal control in the transfections to normalize for variations in transfection efficiency. The cells were transfected in triplicate for 6 hours, followed by incubation with retinoids for 36 hours, and the extracts were assayed for luciferase and β-galactosidase activities. The detailed experimental procedure for holoreceptor transactivations has been described in Heyman et al. above, and Allegretto et al. cited above. The results obtained in this assay are expressed in EC50 numbers, as they are also in the chimeric receptor transactivation assay. The Heyman et al. Cell 68, 397-406, Allegretto et al. J. Biol. Chem. 268, 26625-26633, and Mangelsdorf et al. The Retinoids: Biology, Chemistry and Medicine, pp 319-349, Raven Press Ltd., New York, are expressly incorporated herein by reference. The results of ligand binding assay are expressed in Kd numbers. (See Cheng et al. Biochemical Pharmacology Vol. 22 pp 3099-3108, expressly incorporated herein by reference.)

RARγ = target: T2, RARγ (Homo sapiens, UniProt P13631); assay: Ligand binding assay
T2 sequence (P13631 1-454): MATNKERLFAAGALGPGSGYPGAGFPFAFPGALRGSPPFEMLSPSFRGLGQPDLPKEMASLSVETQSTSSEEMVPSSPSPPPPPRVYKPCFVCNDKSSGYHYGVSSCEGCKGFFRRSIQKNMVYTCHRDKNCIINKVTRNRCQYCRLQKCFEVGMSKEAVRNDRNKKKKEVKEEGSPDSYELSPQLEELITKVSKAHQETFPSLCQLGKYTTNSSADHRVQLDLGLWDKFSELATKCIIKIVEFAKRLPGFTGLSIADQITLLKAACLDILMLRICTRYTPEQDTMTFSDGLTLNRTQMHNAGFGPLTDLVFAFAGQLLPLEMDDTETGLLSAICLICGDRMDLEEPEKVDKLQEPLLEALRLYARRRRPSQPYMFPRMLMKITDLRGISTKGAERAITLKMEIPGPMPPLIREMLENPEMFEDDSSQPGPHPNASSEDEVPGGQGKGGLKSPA
Excerpt: as §1, §2, §3

RARα = target: T3, RARα (Homo sapiens, UniProt P10276); assay: Ligand binding assay
T3 sequence (P10276 1-462): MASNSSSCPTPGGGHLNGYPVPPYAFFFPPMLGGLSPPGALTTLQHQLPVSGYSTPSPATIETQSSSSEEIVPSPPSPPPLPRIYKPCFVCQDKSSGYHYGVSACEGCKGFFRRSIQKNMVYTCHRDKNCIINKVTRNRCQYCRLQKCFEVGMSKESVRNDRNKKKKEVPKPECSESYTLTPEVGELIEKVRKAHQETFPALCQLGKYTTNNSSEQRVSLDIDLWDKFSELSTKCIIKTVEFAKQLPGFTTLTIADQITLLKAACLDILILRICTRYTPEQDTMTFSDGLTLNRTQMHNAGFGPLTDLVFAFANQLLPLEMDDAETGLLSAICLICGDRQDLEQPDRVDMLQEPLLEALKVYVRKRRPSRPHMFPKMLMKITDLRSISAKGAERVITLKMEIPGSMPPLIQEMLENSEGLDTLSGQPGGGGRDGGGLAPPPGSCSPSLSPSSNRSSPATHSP
Excerpt: as §1, §2, §3

[1] = test system: ornithine decarboxylase (ODC); assay: ODC assay: inhibition of TPA induction of ornithine decarboxylase activity; type: in vivo; settings: for IC60: concentration of the test compound which causes 60% inhibition in the ODC assay
Excerpt: A classic measure of retinoic acid activity involves measuring the effects of retinoic acid on ornithine decarboxylase. […] That reference discloses that ornithine decarboxylase (ODC) activity increased precedent to polyamine biosynthesis. It has been established elsewhere that increases in polyamine synthesis can be correlated or associated with cellular proliferation. Thus, if ODC activity could be inhibited, cell hyperproliferation could be modulated. Although all cases for ODC activity increases are unknown, it is known that 12-0-tetradecanoylphorbol-13-acetate (TPA) induces ODC activity. Retinoic acid inhibits this induction of ODC activity by TPA.

Row | Compound | Kd (RARβ) [nM] | Kd (RARγ) [nM] | Kd (RARα) [nM] | IC80 ([1]; concentration of the test compound which causes 80% inhibition in the ODC assay, cell marked (IC80)) | IC60 [1] [nmols]
1 | COCOC1CCC(C)(C)c2ccc(N=Nc3ccc(C(=O)O)cc3)cc21 (racemic) [Compound D7, (+/−) 4-[(5,5-Dimethyl-8-(methoxymethyloxy)-5,6,7,8-tetrahydronaphthalen-2-yl)azo]benzoic Acid] | 226 | > 1000 | > 1000 | – | –
2 | CC1(C)CCC(=O)c2cc(/C=C/c3ccc(C(=O)O)cc3)ccc21 [Compound A2a, (E)-4-[2-(5,6,7,8-tetrahydro-5,5-dimethyl-8-oxo-2-naphthalenyl)ethenyl]-benzoic acid] | 219 | 421 | 150 | – | –
3 | CCO/N=C1\CCC(C)(C)c2ccc(/C=C/c3ccc(C(=O)O)cc3)cc21 [Compound A6, (E)-4-[2-(5,5-Dimethyl-5,6,-dihydro-8(7H)-anti-(O-ethyl oxime)-naphthalen-2-yl)ethenyl]-benzoic acid] | 36 | 127 | 125 | – | –
4 | CC1(C)CC=C(Sc2ccccc2)c2cc(/C=C/c3ccc(C(=O)O)cc3)ccc21 [Compound A18, (E)-4-[2-(5,6-dihydro-5,5-dimethyl-8-(phenylthio)-naphthalen-2-yl)ethenyl] benzoic acid] | 193 | 162 | 538 | – | –
5 | CC1(C)CCC2(SCCCS2)c2cc(/C=C/c3ccc(C(=O)O)cc3)ccc21 [Compound A24] | 92 | 259 | 283 | – | –
6 | CCC(CC)=C1CCC(C)(C)c2ccc(/C=C/c3ccc(C(=O)O)cc3)cc21 [Compound A28, (E)-4-[2-(5,6-Dihydro-5,5-dimethyl-8(7H)-(pentyliden-3-yl)-naphthalen-2-yl)ethenyl]benzoic acid] | 3 | 42 | 4 | – | –
7 | CCO/N=C1\CCC(C)(C)c2ccc(/C(C)=C/C=C/C(C)=C/C(=O)O)cc21 [Compound C25, 7-[4,4-dimethyl-3,4-dihydro-1(2H)-anti-(O-ethyl oxime)-naphth-7-yl]3,7-dimethyl-hepta-2(E),4(E),6(E)-trienoic Acid] | 12 | 42 | 19 | – | –
8 | CO/N=C1\CCC(C)(C)c2ccc(N=Nc3ccc(C(=O)O)cc3)cc21 [Compound D4, 4-[(8(7H)-Anti-(O-methyl oxime)-5,5-dimethyl-5,6-dihydronaphthalen-2-yl)azo]benzoic Acid] | 132 | 363 | – | – | –
9 | CC1(C)CC=C(c2cccs2)c2ccc(C(=O)C=Cc3ccc(C(=O)O)cc3)cc21 [Compound D34, 4-[3-oxo-3-(7,8-dihydro-5-(2-thienyl)-8,8-dimethyl-2-naphthalenyl)-1-propenyl]-benzoic acid] | 200 | 530 | 235 | 4.3 (IC80) nmols | –
10 | CCOC(=O)c1ccc(OC(=O)c2ccc3c(c2)C(S(=O)(=O)c2ccccc2)=CCC3(C)C)cc1 [Compound E24, Ethyl 4-[{(5,5-dimethyl-8-(phenylsulfonyl)-5,6dihydronaphthalen-2-yl)carbonyl}oxy]benzoate] | – | – | – | – | 8.3
11 | CCOC(=O)c1ccc(NC(=O)c2ccc3c(c2)C(C(C)(C)C)=CCC3(C)C)cc1 [Compound E79, Ethyl 4-[(5 .5-dimethyl-5,6-dihydro-8-(1,1-dimethylethyl)-2-naphthalenyl)carboxamido]-benzoate] | – | – | – | – | 5.3

More lines, main results first:

Row | Kd (RARβ) [nM] | Kd (RARγ) [nM] | Kd (RARα) [nM] | Compound | IC80 ([1]; concentration of the test compound which causes 80% inhibition in the ODC assay, cell marked (IC80)) | IC60 [1] [nmols]
12 | 302 | 375 | 77 | CC1(C)CCC(OC2CCCCO2)c2cc(C(=O)Oc3ccc(C(=O)O)cc3)ccc21 (single isomer, unassigned) [Compound E67, 4-[5,6,7,8-tetrahydro-8(S or R)-(2′(S or R)tetrahydropyranoxy)-5,5-dimethyl-2-napthoyloxy]benzoic Acid] | – | –
13 | 35 | 455 | 36 | CC(C)=C1CCC(C)(C)c2ccc(C(=O)Oc3ccc(C(=O)O)cc3)cc21 [Compound E14] | – | –
14 | 378 | > 1000 | 192 | CC(C)=C1CCC(C)(C)c2ccc(C(=O)Nc3ccc(C(=O)O)cc3)cc21 [Compound E17] | – | –
15 | 535 | > 1000 | 551 | CC1(C)CC=C(S(=O)(=O)c2ccccc2)c2cc(C(=O)Oc3ccc(C(=O)O)cc3)ccc21 [Compound E27] | – | –
16 | 531 | 901 | 394 | CC(C)(C)C1=CCC(C)(C)c2ccc(C(=O)Nc3ccc(C(=O)O)cc3)cc21 [Compound E80, 4-[(5,5-dimethyl-5,6-dihydro-8-(1,1-dimethylethyl)-2-naphthalenyl)carboxamido]-benzoic Acid] | – | –
